pIC50: −log10 of the molar value.
Legend:
[1] = target: T1, wild type AXL (wtAXL) receptor tyrosine kinase (Homo sapiens, UniProt P30530); test: NIH-3T3-AXL cellular kinase assay (pY-AXL-ELISA); format: cell-based; conditions: NIH-3T3-AXL (clone 22) cells, serum depleted, compounds 1 h; Table Ia
T1 construct: WtAXL cDNA was cloned into vector pLXSN(ESK) and transfected into Phoenix E packaging cells; expressed in transfected cells; host or cells: NIH3T3 N7 (mouse fibroblasts), retrovirally infected, clone 22
T1 sequence (P30530 26-894): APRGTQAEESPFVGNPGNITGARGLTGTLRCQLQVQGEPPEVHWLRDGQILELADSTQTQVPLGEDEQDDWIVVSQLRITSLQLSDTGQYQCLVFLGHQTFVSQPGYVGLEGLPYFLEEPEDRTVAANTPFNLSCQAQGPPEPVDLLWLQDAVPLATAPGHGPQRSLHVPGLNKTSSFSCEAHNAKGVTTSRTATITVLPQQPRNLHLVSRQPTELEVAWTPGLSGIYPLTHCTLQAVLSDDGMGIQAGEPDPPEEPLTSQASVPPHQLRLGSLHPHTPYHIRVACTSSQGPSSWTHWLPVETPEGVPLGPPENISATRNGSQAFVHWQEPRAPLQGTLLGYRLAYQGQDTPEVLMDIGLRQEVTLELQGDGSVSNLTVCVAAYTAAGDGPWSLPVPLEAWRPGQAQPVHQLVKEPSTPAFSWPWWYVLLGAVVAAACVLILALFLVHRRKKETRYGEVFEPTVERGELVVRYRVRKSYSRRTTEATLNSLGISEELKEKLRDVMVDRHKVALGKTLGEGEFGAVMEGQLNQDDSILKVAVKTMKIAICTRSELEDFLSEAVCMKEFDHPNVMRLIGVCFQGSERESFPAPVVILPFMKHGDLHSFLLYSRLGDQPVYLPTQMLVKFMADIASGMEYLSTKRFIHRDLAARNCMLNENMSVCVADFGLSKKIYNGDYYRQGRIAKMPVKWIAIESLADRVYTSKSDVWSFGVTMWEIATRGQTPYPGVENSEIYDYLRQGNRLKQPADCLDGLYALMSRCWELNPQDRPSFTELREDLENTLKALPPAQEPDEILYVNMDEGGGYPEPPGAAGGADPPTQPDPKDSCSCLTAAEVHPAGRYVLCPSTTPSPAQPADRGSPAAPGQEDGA
Method in brief: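 NIH3T3 cells stably expressing human wild-type AXL (retroviral, puromycin-selected clones) were treated with serial compound dilutions for 1 h and lysed. AXL tyrosine phosphorylation was measured by ELISA on the lysates: biotinylated 4G10 anti-phosphotyrosine, streptavidin-alkaline phosphatase, AttoPhos fluorescence at 430/560 nm after 90 min.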

[2] = system: Hs578T; test: Wound healing migration assay; format: cell-based; conditions: Homo sapiens, Hs-578T; HS578T cell line; Table Ib
Method in brief: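 Cells seeded at 150000/24 well, grown to monolayer overnight, scratched with a pipette tip, then treated with compound at 12.5, 6.25 or 3.125 μM versus DMSO. Stopped by crystal violet fixation at 48-72 h once control wounds closed; IC50 taken as 50% wound size between t0 and t48 or t72.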

[3] = system: Hs578T; test: Cell vitality assay (ATP assay, CellTiter-Glo); format: cell-based; conditions: Homo sapiens, Hs-578T; HS578T cell line, 72 h; Table Ib; read-out: IC50 ATP-Assay HS578T after 72 h
Method in brief: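 1000 cells/well incubated 72 h with compound at 12.5 down to 0.195 μM (twofold steps) or DMSO control. Viability measured as cellular ATP by CellTiter-Glo luminescence; IC50 taken as the concentration giving 50% of the DMSO-control ATP level.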

[4] = system: Hs578T; test: Matrigel outgrowth assay/branching assay; format: cell-based; conditions: Homo sapiens, Hs-578T; HS578T cell line; Table Ib; read-out: Total branching inhibition in Matrigel HS578T
Method in brief: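 Step one: Matrigel (3 mg/ml) is set for 1 h at 37° C. Step two: 5000 cells per well go on in medium with compound (0.78–3.125 μM) or DMSO. Step three: images at 48, 72 and 96 h are scored for complete loss of branching.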

| SMILES | pIC50 [1] | pIC50 [2] | melting point [°C] | pIC50 [3] | pIC50 [4] |
| --- | --- | --- | --- | --- | --- |
| COc1cc2c(Oc3ccc(NS(=O)(=O)c4c(Cl)csc4Cl)cc3F)ccnc2cc1OCCCN1CCCCC1C (centres unmarked) [Example 146, 2,4-Dichloro-thiophene-3-sulfonic acid (3-fluoro-4-{6-methoxy-7-[3-(2-methyl-piperidin-1-yl)-propoxy]-quinolin-4-yloxy}-phenyl)-amide] | > 6.30 | ≥ 4.90 | 131 to 132 | ≥ 4.90 | 4.60 to 5.00 |
| COc1cc2c(Oc3ccc(NS(=O)(=O)c4csc5ccccc45)cc3F)ccnc2cc1OCCCN1CCCCC1C (centres unmarked) [Example 147, Benzo[b]thiophene-3-sulfonic acid (3-fluoro-4-{6-methoxy-7-[3-(2-methyl-piperidin-1-yl)-propoxy]-quinolin-4-yloxy}-phenyl)-amide] | 5.52 to 6.30 | ≥ 4.90 | 120 to 122 | ≥ 4.90 | ≥ 5.00 |
| COc1cc2c(Oc3ccc(NS(=O)(=O)c4ccco4)cc3F)ccnc2cc1OCCCN1CCCCC1C (centres unmarked) [Example 148, Furan-2-sulfonic acid (3-fluoro-4-{6-methoxy-7-[3-(2-methyl-piperidin-1-yl)-propoxy]-quinolin-4-yloxy}-phenyl)-amide] | 5.52 to 6.30 | 4.30 to 4.90 | 118 to 119 | ≥ 4.90 | 4.60 to 5.00 |
| COc1cc2c(Oc3ccc(NS(=O)(=O)c4c(F)cccc4F)cc3F)ccnc2cc1OCCCN1CCCCC1C (centres unmarked) [Example 152, 2,6-Difluoro-N-(3-fluoro-4-{6-methoxy-7-[3-(2-methyl-piperidin-1-yl)-propoxy]-quinolin-4-yloxy}-phenyl)-benzenesulfonamide] | > 6.30 | ≥ 4.90 | 132 to 134 | ≥ 4.90 | ≥ 5.00 |
| COc1cc2c(Oc3ccc(NS(=O)(=O)c4ccccc4OC(F)(F)F)cc3F)ccnc2cc1OCCCN1CCCCC1C (centres unmarked) [Example 153, N-(3-Fluoro-4-{6-methoxy-7-[3-(2-methyl-piperidin-1-yl)-propoxy]-quinolin-4-yloxy}-phenyl)-2-trifluoromethoxy-benzenesulfonamide] | > 6.30 | ≥ 4.90 | 90 to 92 | ≥ 4.90 | 4.60 to 5.00 |
| COc1cc2c(Oc3ccc(NS(=O)(=O)c4cc(Cl)ccc4Cl)cc3F)ccnc2cc1OCCCN1CCCCC1C (centres unmarked) [Example 154, 2,5-Dichloro-N-(3-fluoro-4-{6-methoxy-7-[3-(2-methyl-piperidin-1-yl)-propoxy]-quinolin-4-yloxy}-phenyl)-benzenesulfonamide] | > 6.30 | ≥ 4.90 | 128 to 130 | ≥ 4.90 | 4.60 to 5.00 |
| COc1cc2c(Oc3ccc(NS(=O)(=O)c4cc(F)ccc4F)cc3C)ccnc2cc1OCCCN1CCC(C)CC1 [Example 171, 2,5-Difluoro-N-(4-{6-methoxy-7-[3-(4-methyl-piperidin-1-yl)-propoxy]-quinolin-4-yloxy}-3-methyl-phenyl)-benzenesulfonamide] | 5.52 to 6.30 | 4.30 to 4.90 | 222 to 223 | 4.30 to 4.90 | 4.60 to 5.00 |
| COc1cc2c(Oc3ccc(NS(=O)(=O)c4c(F)cccc4F)cc3C)ccnc2cc1OCCCN1CCC(C)CC1 [Example 172, 2,6-Difluoro-N-(4-{6-methoxy-7-[3-(4-methyl-piperidin-1-yl)-propoxy]-quinolin-4-yloxy}-3-methyl-phenyl)-benzenesulfonamide] | 5.52 to 6.30 | ≥ 4.90 | 191 to 193 | ≥ 4.90 | ≥ 5.00 |
| COc1cc2c(Oc3ccc(NS(=O)(=O)c4c(F)cccc4F)cc3OC)ccnc2cc1OCCCN1CCC(C)CC1 [Example 173, 2,6-Difluoro-N-(3-methoxy-4-{6-methoxy-7-[3-(4-methyl-piperidin-1-yl)-propoxy]-quinolin-4-yloxy}-phenyl)-benzenesulfonamide] | 5.52 to 6.30 | 4.30 to 4.90 | 98 to 101 | ≥ 4.90 | 4.60 to 5.00 |
| COc1cc2c(Oc3ccc(NS(=O)(=O)c4ccccc4OC(F)(F)F)cc3C)ccnc2cc1OCCCN1CCC(C)CC1 [Example 174, N-(4-{6-Methoxy-7-[3-(4-methyl-piperidin-1-yl)-propoxy]-quinolin-4-yloxy}-3-methyl-phenyl)-2-trifluoromethoxy-benzenesulfonamide] | 5.52 to 6.30 | ≥ 4.90 | 168 to 169 | ≥ 4.90 | ≥ 5.00 |
| COc1cc2c(Oc3ccc(NS(=O)(=O)c4cc(Cl)ccc4Cl)cc3C)ccnc2cc1OCCCN1CCC(C)CC1 [Example 175, 2,5-Dichloro-N-(4-{6-methoxy-7-[3-(4-methyl-piperidin-1-yl)-propoxy]-quinolin-4-yloxy}-3-methyl-phenyl)-benzenesulfonamide] | 5.52 to 6.30 | ≥ 4.90 | 187 to 188 | ≥ 4.90 | ≥ 5.00 |
| COc1cc2c(Oc3ccc(NS(=O)(=O)c4c(Cl)cccc4Cl)cc3C)ccnc2cc1OCCCN1CCC(C)CC1 [Example 176, 2,6-Dichloro-N-(4-{6-methoxy-7-[3-(4-methyl-piperidin-1-yl)-propoxy]-quinolin-4-yloxy}-3-methyl-phenyl)-benzenesulfonamide] | 5.52 to 6.30 | ≥ 4.90 | 209 to 210 | ≥ 4.90 | ≥ 5.00 |
| COc1cc2c(Oc3ccc(NS(=O)(=O)c4cc(Cl)ccc4Cl)cc3F)ccnc2cc1OCCCN(C)C [Example 180, 2,5-Dichloro-N-{4-[7-(3-dimethylamino-propoxy)-6-methoxy-quinolin-4-yloxy]-3-fluoro-phenyl}-benzenesulfonamide] | > 6.30 | ≥ 4.90 | 150 to 152 | ≥ 4.90 | ≥ 5.00 |
| COc1cc2c(Oc3ccc(NS(=O)(=O)c4ccc(Cl)s4)cc3F)ccnc2cc1OCCCN(C)C [Example 182, 5-Chloro-thiophene-2-sulfonic acid {4-[7-(3-dimethylamino-propoxy)-6-methoxy-quinolin-4-yloxy]-3-fluoro-phenyl}-amide] | > 6.30 | ≥ 4.90 | 130 to 132 | ≥ 4.90 | 4.60 to 5.00 |
| COc1cc2c(Oc3ccc(NS(=O)(=O)c4ccco4)cc3F)ccnc2cc1OCCCN(C)C [Example 185, Furan-2-sulfonic acid {4-[7-(3-dimethylamino-propoxy)-6-methoxy-quinolin-4-yloxy]-3-fluoro-phenyl}-amide] | 5.52 to 6.30 | 4.30 to 4.90 | 185 to 187 | ≥ 4.90 | 4.60 to 5.00 |
| COc1cc2c(Oc3ccc(NS(=O)(=O)c4cccs4)cc3F)ccnc2cc1OCCCN(C)C [Example 186, Thiophene-2-sulfonic acid {4-[7-(3-dimethylamino-propoxy)-6-methoxy-quinolin-4-yloxy]-3-fluoro-phenyl}-amide] | > 6.30 | ≥ 4.90 | 186 to 188 | ≥ 4.90 | 4.60 to 5.00 |

From patent US9169241B2, “Quinolinyloxyphenylsulfonamides” (Max-Planck-Gesellschaft Zur Forderung der Wissenschaften …, priority 2009, dated 2015)
